Results on 29 compounds are retold here after patent publication US8012956B2, “Tropane compounds” (Exelixis, Inc., priority 2007, dated 2011).

In the assay the target is HSP90 (Homo sapiens, UniProt P07900). The assay is described as follows: HSP90 inhibition (HSP90 IC50). Type of assay: biochemical.
The compound `COc1cccc(C(=O)NC2CC3CCC(C2)N3c2ccc(C(=O)N[C@H]3CCN(Cc4ccccc4)C3)cn2)c1C` (stereo partly drawn) [6-[3-endo-({[2-methyl-3-(methyloxy)phenyl]carbonyl}amino)-8-azabicyclo[3.2.1]oct-8-yl]-N-[(3S)-1-(phenylmethyl)pyrrolidin-3-yl]pyridine-3-carboxamide] returned an IC50 of 500 to 999 nM.

Compound `COc1cccc(C(=O)N[C@H]2C[C@H]3CC[C@@H](C2)N3c2ccc(C(=O)NCc3ccc(C(F)(F)F)cc3)cn2)c1C` [6-[3-endo-({[2-methyl-3-(methyloxy)phenyl]carbonyl}amino)-8-azabicyclo[3.2.1]oct-8-yl]-N-{[4-(trifluoromethyl)phenyl]methyl}pyridine-3-carboxamide] registered an IC50 of 1000 to 2000 nM.

For the compound `CCC(Nc1cc(C(=O)N[C@H]2C[C@H]3CC[C@@H](C2)N3c2ccc(C(=O)C3CC3)cn2)c(C)cc1C(N)=O)C(C)C` (stereo partly drawn) [N-{8-[5-(cyclopropylcarbonyl)pyridin-2-yl]-8-azabicyclo[3.2.1]oct-3-endo-yl}-5-[(1-ethyl-2-methylpropyl)amino]-2-methylbenzene-1,4-dicarboxamide], the IC50 was less than 500 nM.

For the compound `Cc1c(O)cccc1C(=O)NC1CC2CCC(C1)N2c1ccc(C(=O)NCc2ccccc2)cn1` (stereo not drawn) [6-(3-endo-{[(3-hydroxy-2-methylphenyl)carbonyl]amino}-8-azabicyclo[3.2.1]oct-8-yl)-N-(phenylmethyl)pyridine-3-carboxamide], the IC50 lay within 1000 to 2000 nM.

“N4-(8-{5-[({(1S)- 1-[4-(4- methylpiperazin-1- yl)phenyl]ethyl}amino)carbonyl]pyridin- 2-yl}-8-azabicyclo[3.2.1]oct-3- endo-yl)-2-(phenylamino)benzene- 1,4-dicarboxamide” showed an IC50 of less than 500 nM.

`CCCNc1cc(C(=O)N[C@H]2C[C@H]3CC[C@@H](C2)N3c2ccc(C(C)=O)cn2)ccc1C(N)=O` [N4-[8-(5-acetylpyridin-2-yl)-8-azabicyclo[3.2.1]oct-3-endo-yl]-2-(propylamino)benzene-1,4-dicarboxamide] showed an IC50 of less than 500 nM.

As to `CCC(CC)Nc1cc(C(=O)N[C@H]2C[C@H]3CC[C@@H](C2)N3c2ccc(C(=O)CCN3CCCCC3)cn2)ccc1C(N)=O` [2-[(1-ethylpropyl)amino]-N4-{8-[5-(3-piperidin-1-ylpropanoyl)pyridin-2-yl]-8-azabicyclo[3.2.1]oct-3-endo-yl}benzene-1,4-dicarboxamide], the IC50 is less than 500 nM.

Take `CCN(CC)CCOc1cccc(CNC(=O)c2ccc(N3[C@@H]4CC[C@H]3C[C@@H](NC(=O)c3cccc(OC)c3C)C4)nc2)c1` [N-[(3-{[2-(diethylamino)ethyl]oxy}pheny)methyl]-6-[3-endo-({[2-methyl-3-(methyloxy)phenyl]carbonyl}amino)-8-azabicyclo[3.2.1]oct-8-yl]pyridine-3-carboxamide]: the IC50 is less than 500 nM.

Take `Cc1cc(C(=O)NC2CC3CCC(C2)N3c2ccc(C(=O)N[C@@H]3CCN(C)C3)cn2)c(C)cc1C(N)=O` (stereo partly drawn) [2,5-dimethyl-N-{8-[5-({[(3R)-1-methylpyrrolidin-3-yl]amino}carbonyl)pyridin-2-yl]-8-azabicyclo[3.2.1]oct-3-endo-yl}benzene-1,4-dicarboxamide]: the IC50 is 500 to 999 nM.

`C[C@H](NC(=O)c1ccc(N2C3CCC2CC(NC(=O)c2ccc(C(N)=O)c(N[C@H]4CC[C@H](O)CC4)c2)C3)nc1)c1ccc(N2CCN(C)CC2)cc1` (stereo partly drawn) [2-[(4-hydroxycyclohexyl)amino]-N4-(8-{5-[({(1S)-1-[4-(4-methylpiperazin-1-yl)phenyl]ethyl}amino)carbonyl]pyridin-2-yl}-8-azabicyclo[3.2.1]oct-3-endo-yl)benzene-1,4-dicarboxamide] came in with an IC50 of less than 500 nM.

The compound `CCC(C)Oc1cc(C(=O)N[C@H]2C[C@H]3CC[C@@H](C2)N3c2ccc(C(=O)C3CC3)cn2)c(C)cc1C(N)=O` (some centres unmarked) returned an IC50 of less than 500 nM.

For the compound `CC(=O)c1ccc(N2[C@@H]3CC[C@H]2C[C@@H](NC(=O)c2ccc(C(N)=O)c(NN4CCCCC4)c2)C3)nc1` [N4-[8-(5-acetylpyridin-2-yl)-8-azabicyclo[3.2.1]oct-3-endo-yl]-2-(piperidin-1-ylamino)benzene-1,4-dicarboxamide], the IC50 is less than 500 nM.

`COc1ccc(Nc2cc(C(=O)N[C@H]3C[C@H]4CC[C@@H](C3)N4c3ccc(C(N)=O)cn3)ccc2C(N)=O)cc1OCCN(C)C` [N4-{8-[5-(aminocarbonyl)pyridin-2-yl]-8-azabicyclo[3.2.1]oct-3-endo-yl}-2-{[3-{[2-(dimethylamino)ethyl]oxy}-4-(methyloxy)phenyl]amino}benzene-1,4-dicarboxamide] returned an IC50 of less than 500 nM.

`NC(=O)c1cc(Br)c(C(=O)N[C@H]2C[C@H]3CC[C@@H](C2)N3c2ccc(C(=O)C3CC3)cn2)cc1NC1CCCC1` [2-bromo-5-(cyclopentylamino)-N-{8-[5-(cyclopropylcarbonyl)pyridin-2-yl]-8-azabicyclo[3.2.1]oct-3-endo-yl}benzene-1,4-dicarboxamide] came in with an IC50 of less than 500 nM.

`NC(=O)c1ccc(C(=O)N[C@H]2C[C@H]3CC[C@@H](C2)N3c2ccc(C(=O)CN3CCCCC3)cn2)cc1NCC1CC1` [2-[(cyclopropylmethyl)amino]-N4-{8-[5-(piperidin-1-ylacetyl)pyridin-2-yl]-8-azabicyclo[3.2.1]oct-3-endo-yl}benzene-1,4-dicarboxamide] gave an IC50 of 2000 to 10000 nM.

Turning to `CCC(COC)Nc1cc(C(=O)N[C@H]2C[C@H]3CC[C@@H](C2)N3c2ccc(C(C)=O)cn2)ccc1C(N)=O` (stereo partly drawn) [N4-(8-(5-acetylpyridin-2-yl)-8-azabicyclo[3.2.1]oct-3-endo-yl]-2-({1-[(methyloxy)methyl]propyl}amino) benzene-1,4-dicarboxamide], the IC50 was less than 500 nM.

For the compound `CC(=O)c1ccc(N2[C@@H]3CC[C@H]2C[C@@H](NC(=O)c2cc(C)c(C(N)=O)cc2C)C3)nc1` [N-[8-(5-acetylpyridin-2-yl)-8-azabicyclo[3.2.1]oct-3-endo-yl]-2,5-dimethylbenzene-1,4-dicarboxamide], the IC50 was less than 500 nM.

As to `Cc1cc(C(=O)N[C@H]2C[C@H]3CC[C@@H](C2)N3c2ccc(C(=O)N[C@H]3CCN(C(C)C)C3)cn2)c(C)cc1C(N)=O` [2,5-dimethyl-N-{8-[5-({[(3S)-1-(1-methylethyl)pyrrolidin-3-yl]amino}carbonyl)pyridin-2-yl]-8-azabicyclo[3.2.1]oct-3-endo-yl}benzene-1,4-dicarboxamide], the IC50 is less than 500 nM.

For the compound `CCCCNC(=O)c1ccc(N2[C@@H]3CC[C@H]2C[C@@H](NC(=O)c2cccc(OC)c2C)C3)nc1` [N-butyl-6-[3-endo-({[2-methyl-3-(methyloxy)phenyl]carbonyl}amino)-8-azabicyclo[3.2.1]oct-8-yl]pyridine-3-carboxamide], the IC50 lay in the range of 500 to 999 nM.

In the case of `COc1cccc(C(=O)NC2CC3CCC(C2)N3c2ccc(C(=O)N[C@@H](C)C(C)C)cn2)c1C` (stereo partly drawn) [N-[(1S)-1,2-dimethylpropyl]-6-[3-endo-({[2-methyl-3-(methyloxy)phenyl]carbonyl}amino)-8-azabicyclo[3.2.1]oct-8-yl]pyridine-3-carboxamide], the IC50 fell in the range of 1000 to 2000 nM.

Compound `COc1cccc(C(=O)N[C@H]2C[C@H]3CC[C@@H](C2)N3c2ccc(C(=O)NCc3ccccc3)cn2)c1CCCO` [6-[3-endo-({[2-(3-hydroxypropyl)-3-(methyloxy)phenyl]carbonyl}amino)-8-azabicyclo[3.2.1]oct-8-yl]-N-(phenylmethyl)pyridine-3-carboxamide] came in with an IC50 of less than 500 nM.

On to `CC[C@@H](C)Nc1cc(C(=O)NC2CC3CCC(C2)N3c2ccc(C(=O)C3CC3)cn2)ccc1C(N)=O` (stereo partly drawn) [N4-{8-[5-(cyclopropylcarbonyl)pyridin-2-yl]-8-azabicyclo[3.2.1]oct-3-endo-yl}-2-{[(1R)-1-methylpropyl]amino}benzene-1,4-dicarboxamide], for which the IC50 was less than 500 nM.

`CCCNc1cc(C(=O)N[C@H]2C[C@H]3CC[C@@H](C2)N3c2ccc(C(=O)C3CC3)cn2)ccc1C(N)=O` [N4-{8-[5-(cyclopropylcarbonyl)pyridin-2-yl]-8-azabicyclo[3.2.1]oct-3-endo-yl}-2-(propylamino)benzene-1,4-dicarboxamide] registered an IC50 of less than 500 nM.

Compound `NC(=O)c1ccc(C(=O)N[C@H]2C[C@H]3CC[C@@H](C2)N3c2ccc(C(=O)CCC(F)(F)F)cn2)cc1NCC1CC1` [2-[(cyclopropylmethyl)amino]-N4-{8-[5-(4,4,4-trifluorobutanoyl)pyridin-2-yl]-8-azabicyclo[3.2.1]oct-3-endo-yl}benzene-1,4-dicarboxamide] had an IC50 of 2000 to 10000 nM.

`NC(=O)c1ccc(N2C3CCC2CC(NC(=O)c2ccc(C(N)=O)c(N[C@H]4CC[C@H](O)CC4)c2)C3)nc1` (stereo partly drawn) [N4-{8-[5-(aminocarbonyl)pyridin-2-yl]-8-azabicyclo[3.2.1]oct-3-endo-yl}-2-[(4-hydroxycyclohexyl)amino]benzene-1,4-dicarboxamide] registered an IC50 of less than 500 nM.

Take `Cc1c(O)cccc1C(=O)NC1CC2CCC(C1)N2c1ccc(C(=O)N[C@@H](C)c2ccc(N3CCN(C)CC3)cc2)cn1` (stereo partly drawn) [6-(3-endo-{[(3-hydroxy-2-methylphenyl)carbonyl]amino}-8-azabicyclo[3.2.1]oct-8-yl)-N-{(1S)-1-[4-(4-methylpiperazin-1-yl)phenyl]ethyl}pyridine-3-carboxamide]: the IC50 was less than 500 nM.

In turn, `COc1cccc(C(=O)NC2CC3CCC(C2)N3c2ccc(C(=O)NC(C)c3ccccc3)cn2)c1C` (centres unmarked) displayed an IC50 of less than 500 nM.

Compound `CC[C@@H](C)Nc1c(C(N)=O)cc(Br)c(C(=O)NC2CC3CCC(C2)N3c2ccc(C(=O)C3CC3)cn2)c1Cl` (stereo partly drawn) [5-bromo-3-chloro-N4-{8-[5-(cyclopropylcarbonyl)pyridin-2-yl]-8-azabicyclo[3.2.1]oct-3-endo-yl}-2-{[(1R)-1-methylpropyl]amino}benzene-1,4-dicarboxamide] registered a 50% inhibitory concentration (IC50) of less than 500 nM.

In turn, `COc1cccc(C(=O)N[C@H]2C[C@H]3CC[C@@H](C2)N3c2ccc(C(=O)NCCC(C)C)cn2)c1C` [N-(3-methylbutyl)-6-[3-endo-({[2-methyl-3-(methyloxy)phenyl]carbonyl}amino)-8-azabicyclo[3.2.1]oct-8-yl]pyridine-3-carboxamide] returned an IC50 of 1000 to 2000 nM.

Broadly, the IC50 is the concentration that gives 50% inhibition. A low value points to greater potency in that assay.
